# Measured values from PMC10756276, “Highly specific σ2R/TMEM97 ligand FEM-1689 alleviates neuropathic pain and inhibits the integrated stress response” (Proceedings of the National Academy of Sciences of the …, 2023).
# “Also recorded” adds a separate entry of the source. Read-outs that look alike come from different tables or passages of the source.
# What was measured:
# [1] = system: MGO-induced mechanical hypersensitivity, wild-type mice; experiment: Methylglyoxal-induced mechanical hypersensitivity; type: in vivo, mouse; details: MGO 20 ng intraplantar; FEM-1689 20 mg/kg IV or ISRIB 2.5 mg/kg IP 24 h after MGO
# [2] = system: SNI model of neuropathic pain, wild-type and TMEM97KO mice; experiment: SNI model of neuropathic pain, von Frey mechanical hypersensitivity; type: in vivo, mouse; details: for mechanical hypersensitivity after SNI (von Frey): male and female
# [3] = system: p-ACC in mouse DRG neurons; experiment: p-ACC immunocytochemistry in cultured DRG neurons; type: cell-based; details: 16 h; FEM-1689 10, 100, 1,000 nM; A769662 100 µM; wild-type and TMEM97KO neurons
# Procedure: (§1) The ICC protocol was based on a previously published protocol ([76]). […] Cells were blocked with 10% normal goat serum (NGS) in PBS-triton X (0.1%). […] Antibodies were incubated at 4 °C overnight. […] It was washed with PBS twice. […] Images were analyzed using Olympus CellSens. […] Number of cells analyzed are detailed in SI Appendix, Tables S3 and S4. […]
# (§2) T his BSA gradient containing the cells was centrifuged at 900g for 5 min at room temperatur e.
# (§3) The pellet containing the cells was resuspended in Br ainPhys media (STEMCell #05790) containing 2% […]
# (§4) 1% Gluta Max (Gibco # 350 5 0061). Hu man DRG ne uron s were plated a nd grown o n glass coverslips coate d with po ly-D-lysine (Sigma #P7405). C ultured D RG neurons were plated for 24 hours before being treated.
# (§5) Methylglyoxal (Sigma- Aldrich #M0252) and F EM- 1689 were serially diluted in media.
# (§6) Mouse samples - DRG cultures […]
# (§7) anesthesia and decapitated. […]
# (§8) section above with minor differences.
# (§9) Mouse DRG neurons were grown in
# (§10) SAS-0132 and DKR-1677 were […]
# (§11) dissolved in 100% DMSO to a final concentr ation of 200mM and stored at - 20 °C. and DKR-1677 were serially diluted in media. Untreated media was completely replaced with media containing each compound. […]
# (§12) Slides were […]
# incubated with 1:2 diluted hydrogen peroxide in distilled water for 10 min at r oom temper ature and washed twice in distilled water. […]
# BiP in mouse DRG neurons = experiment: BiP immunocytochemistry in cultured DRG neurons; type: cell-based; details: ISRIB 200 nM
# Procedure: as §1, §2, §3, §4, §5, §6, §7, §8, §9, §10, §11, §12
# (§13) incubated with 1:2 diluted hydrogen peroxide in distilled water for 10 min at r oom temper ature and washed twice in distilled water. The protease IV was applied to each section and incubated for 5 min at room temperature. Slides were w ashed twice in 1X PBS and RNA scope was performed immediately. A mixture of probes - Tmem97, Scn10a, and Fabp7 – was hybridized for 2 hours at 40 °C in a humidity control tray
# Alpha1b = biological target: T1, Alpha1b (Homo sapiens, UniProt P35368); experiment: PDSP competitive binding assay; details: 10 µM test article; read-out: Ki: primary assay inhibition of radioligand binding, Alpha1b
# T1 construct: purchased NIMH Psychoactive Drug Screening Program (PDSP), University of North Carolina at Chapel Hill
# D3 = D3 (Homo sapiens, UniProt P35462); experiment: PDSP competitive binding assay; details: 10 µM test article; read-out: Ki: primary assay inhibition of radioligand binding, D3
# [4] = Pharmacokinetic parameters after IP dosing (Fig. 2); type: in vivo
# 5HT2C = 5HT2C (Homo sapiens, UniProt P28335); experiment: PDSP competitive binding assay; details: 10 µM test article; read-out: Ki: primary assay inhibition of radioligand binding, 5HT2C
# 5HT2B = 5HT2B (Homo sapiens, UniProt P41595); experiment: PDSP competitive binding assay; details: 10 µM test article; read-out: Ki: primary assay inhibition of radioligand binding, 5HT2B
# KOR = KOR (Homo sapiens, UniProt P41145); experiment: PDSP competitive binding assay
# NET = NET (Homo sapiens, UniProt P23975); experiment: PDSP competitive binding assay
# PBR = biological target: T2, PBR (Rattus norvegicus, UniProt P16257); experiment: PDSP competitive binding assay; details: 10 µM test article; read-out: Ki: primary assay inhibition of radioligand binding, PBR
# T2 construct: purchased NIMH Psychoactive Drug Screening Program (PDSP), University of North Carolina at Chapel Hill
# [5] = system: p-eIF2α in mouse DRG neurons; experiment: p-eIF2α immunocytochemistry in cultured DRG neurons; type: cell-based; details: for p-eIF2α levels: ISRIB 200 nM
# Procedure: as §1, §2, §3, §4, §5, §6, §7, §8, §9, §10, §11, §12, §13
# 5HT1B = biological target: T3, 5HT1B (Homo sapiens, UniProt P28222); experiment: PDSP competitive binding assay; details: 10 µM test article; read-out: Ki: primary assay inhibition of radioligand binding, 5HT1B
# T3 construct: purchased NIMH Psychoactive Drug Screening Program (PDSP), University of North Carolina at Chapel Hill
# DOR = DOR (Homo sapiens, UniProt P41143); experiment: PDSP competitive binding assay; details: 10 µM test article; read-out: Ki: primary assay inhibition of radioligand binding, DOR
compound,measurement,setting,value
OCCCN1CC[C@@H]2C[C@H]1c1cc(-c3ccc(C(F)(F)F)cc3)ccc12 [FEM-1689],MGO-induced mechanical hypersensitivity,[1],completely reversed MGO-induced mechanical hypersensitivity; also recorded: alleviated mechanical hypersensitivity for the duration of the pain state
same,mechanical hypersensitivity after SNI (von Frey),"[2]; single 10 mg/kg IV, 30 d after SNI, wild-type and TMEM97KO, 7 d, 10 mg/kg",little or no change for mechanical sensitivity in either group; also recorded: not sufficient to reduce mechanical hypersensitivity
same,mechanical hypersensitivity after SNI (von Frey),"[2]; single 20 mg/kg IV, TMEM97KO mice, 20 mg/kg",failed to reduce mechanical hypersensitivity
same,duration of reversal of mechanical hypersensitivity,"[2]; single 20 mg/kg IV, wild-type mice",roughly 4 d
same,mechanical hypersensitivity after SNI (von Frey),"[2]; single 20 mg/kg IV, wild-type mice, 20 mg/kg",effectively reversed mechanical hypersensitivity; also recorded: maximal antinociceptive effect
same,p-ACC levels,[3],remained unchanged; also recorded: no change in p-ACC levels
same,BiP levels,BiP in mouse DRG neurons; TMEM97KO mouse DRG neurons,una ffecte d; also recorded: did not reduce levels of BiP
same,BiP levels,BiP in mouse DRG neurons; wild-type mouse DRG neurons,reduced at a high concentration of 1000 nM
same,inhibition at 10 µM,Alpha1b,< 50%
same,inhibition at 10 µM,D3,< 50%
same,brain to plasma ratio (AUClast),[4]; IP,20.5
same,Cmax (IP),"[4]; brain, IP",10916 ng/mL
same,t1/2 (IP),"[4]; brain, IP",11.4 h
same,brain entry,"[4]; pharmacokinetic experiments, Fig. 2",readily enters the brain
same,Cmax (IP),"[4]; plasma, IP",508 ng/mL
same,t1/2 (IP),"[4]; plasma, IP",21.7 h
same,inhibition at 10 µM,5HT2C,< 50%
same,inhibition at 10 µM,5HT2B,< 50%
same,Ki,"KOR; Run 1, read-out: Ki, KOR",4700 nM
same,Ki,"KOR; Run 2, read-out: Ki, KOR",9490 nM
same,Ki,KOR; read-out: KOR Ki,7090 ± 2400 nM
same,Ki,"NET; Ki, NET, Run 1",668 nM
same,Ki,"NET; Ki, NET, Run 2",221 nM
same,Ki,"NET; Ki, NET, Run 3",209 nM
same,Ki,"NET; Ki, NET, Run 4",519 nM
same,selectivity for σ2R/TMEM97 vs NET,NET; ratio of Ki,24 fold
same,Ki,"NET; read-out: NET Ki, average of four Ki determinations",405 ± 227 nM
same,inhibition at 10 µM,PBR,< 50%
same,treatment time of maximal effect on p-eIF2α,"[5]; 100 nM, wild-type mouse DRG neurons",16 h
same,half-life (t1/2) at reducing p-eIF2α levels in vitro,"[5]; 100 nM, wild-type mouse DRG neurons, 0.5-16 h",5.0 h
same,IC50,"[5]; DRG neuron, wild-type mouse DRG neurons, 16 h",30 nM
same,p-eIF2α levels,"[5]; TMEM97KO mouse DRG neurons, 16 h",did not respond
same,p-eIF2α levels,"[5]; wild-type mouse DRG neurons, 16 h",reduced p-eIF2α levels
same,concentration of maximal ISR inhibition (p-eIF2α),"[5]; wild-type mouse DRG neurons, 16 h, comparable to ISRIB 200 nM",100 nM
same,inhibition at 10 µM,5HT1B,< 50%
same,inhibition at 10 µM,DOR,< 50%
